This note sets out measurements from patent US8815852B2, “Carbamoyloxy arylalkan arylpiperazine analgesics” (SK Biopharmaceuticals Co., Ltd., priority 2007, dated 2014).

One experiment concerns male ICR mouse. Put plainly: Acetic acid-induced writhing test in mouse. The class given is in vivo. Particulars: Mus musculus, po, 1 h, at 10 po (method: 10 mg/kg oral, 1 hour before acetic acid); read-out: AA Writhing: Suppression ratio of Pain response. The method, then:
2. Acetic Acid-Induced Writhing Test in Mouse
An acetic acid-induced writhing test is one of models for measuring an analgesic effect of drugs. A test material dissolved in a suitable vehicle was orally administered to a male ICR mouse weighing 30 to 35 g at an amount of 10 mg/kg. After 1 hour of the oral administration, […] of an aqueous 0.8% acetic acid solution was intraperitoneally injected into the male ICR mouse to induce the abdominal pain of the male ICR mouse. Right after the administration of acetic acid, the male ICR mouse was put into an empty cage, and the number of writhing behaviors of the mice was counted for 10 minutes. The term “writhing represents a reflex action in which the mouse overtly extends its abdomen by stretching its hind legs due to the abdominal pain. The analgesic effect of the test material is represented by the ‘suppression ratio of pain response’ {[(Writhing number of Vehicle-administered group−Writhing number of Test material-administered group)/(Writhing number of Vehicle-administered group)]×100%} or 50% of Effective amount (ED50 (median effective dose); an amount of test material that is required to suppress 50% of pain behaviors) of Test material. The ED50 (median effective dose) was determined by calculating the suppression ratio of pain response in at least three doses of test materials and subjecting to the linear regression.
(In general: Writhing tests count abdominal constrictions after an irritant is injected.)
In the case of `Cc1ccc(N2CCN(CCC(OC(N)=O)c3ccccc3)CC2)cc1C` (stereo not shown) [Example 29, Carbamic acid 3-[4-(3,4-dimethyl-phenyl)-piperazin-1-yl]-1-phenyl-propyl ester], the inhibition in vivo at 10 mg/kg came to 99%.
Still for that read-out and setting: to `COc1ccc(N2CCN(CCC(OC(N)=O)c3cccc4ccccc34)CC2)cc1` (stereo not shown) [Example 55, Carbamic acid 3-[4-(4-methoxy-phenyl)-piperazin-1-yl]-1-naphthalen-1-yl-propyl ester] belongs 16%.
The same measure, in the same setting: as for `COc1ccc(N2CCN(CCC(OC(N)=O)c3ccc(C)cc3)CC2)cc1` (stereo not shown) [Example 56, Carbamic acid 3-[4-(4-methoxy-phenyl)-piperazin-1-yl]-1-p-tolyl-propyl ester], the figure is 93%; as for `CC(CC(OC(N)=O)c1ccccc1)N1CCN(c2ncc(Cl)cc2Cl)CC1` (stereo not shown) [Example 114], 39%; as for `COc1ccc(N2CCN(CCC(OC(N)=O)c3ccc(C)cc3C)CC2)cc1` (stereo not shown) [Example 60, Carbamic acid 1-(2,4-dimethyl-phenyl)-3-[4-(4-methoxy-phenyl)-piperazin-1-yl]-propyl ester], 62%.
Same read-out and setting: to `NC(=O)OC(CCN1CCN(c2ccc(C(F)(F)F)cc2[N+](=O)[O-])CC1)c1ccccc1` (stereo not shown) [Example 35, Carbamic acid 3-[4-(2-nitro-4-trifluoromethyl-phenyl)-piperazin-1-yl]-1-phenyl-propyl ester] belongs 50%.
On to `NC(=O)OC(CCN1CCN(c2ncccn2)CC1)c1ccccc1` (stereo not shown) [Example 34, Carbamic acid 1-phenyl-3-(4-pyrimidin-2-yl-piperazin-1-yl)-propyl ester], for which the inhibition in vivo at 10 mg/kg was determined as 21%.
On to `COc1ccc(N2CCN(CCC(OC(N)=O)c3cccc(C(F)(F)F)c3)CC2)cc1` (stereo not shown) [Example 68, Carbamic acid 3-[4-(4-methoxy-phenyl)-piperazin-1-yl]-1-(3-trifluoromethyl-phenyl)-propyl ester], for which the inhibition in vivo at 10 mg/kg stood at 48%.
The same measure, in the same setting: to `COc1ccc(Cl)cc1N1CCN(CCC(OC(N)=O)c2ccccc2)CC1` (stereo not shown) [Example 32, Carbamic acid 3-[4-(5-chloro-2-methoxy-phenyl)-piperazin-1-yl]-1-phenyl-propyl ester] belongs 23%.
In the case of `COc1ccc(N2CCN(CCC(OC(N)=O)c3ccccc3C(F)(F)F)CC2)cc1` (stereo not shown) [Example 51, Carbamic acid 3-[4-(4-methoxy-phenyl)-piperazin-1-yl]-1-(2-trifluoromethyl-phenyl)-propyl ester], the inhibition in vivo at 10 mg/kg is 95%.
For the compound `COc1ccc(N2CCN(CCC(OC(N)=O)c3ccc(C(C)(C)C)cc3)CC2)cc1` (stereo not shown) [Example 48], the inhibition in vivo at 10 mg/kg worked out at 93%.
The same measure, in the same setting: as for `COc1ccc(N2CCN(CCC(OC(N)=O)c3ccc4ccccc4c3)CC2)cc1` (stereo not shown) [Example 49, Carbamic acid 3-[4-(4-methoxy-phenyl)-piperazin-1-yl]-1-naphthalen-2-yl-propyl ester], the figure is 64%; as for `COc1ccc(N2CCN(CCC(OC(N)=O)c3ccc(C(F)(F)F)cc3)CC2)cc1` (stereo not shown) [Example 66, Carbamic acid 3-[4-(4-methoxy-phenyl)-piperazin-1-yl]-1-(4-trifluoromethyl-phenyl)-propyl ester], 95%; as for `COc1ccc(N2CCN(CCC(OC(N)=O)c3cccc(Cl)c3)CC2)cc1` (stereo not shown) [Example 45, Carbamic acid 1-(3-chloro-phenyl)-3-[4-(4-methoxy-phenyl)-piperazin-1-yl]-propyl ester], 62%.
Still for that read-out and setting: as for `NC(=O)OC(CCN1CCN(c2ccc3c(c2)OCCO3)CC1)c1ccccc1` (stereo not shown) [Example 11, Carbamic acid 3-[4-(2,3-dihydro-benzo[1,4]dioxin-6-yl)-piperazin-1-yl]-1-phenyl-propyl ester], the figure is 48%; as for `Cc1ccc(N2CCN(C(C)CC(OC(N)=O)c3ccccc3)CC2)cc1C` (stereo not shown) [Example 111, Carbamic acid 3-[4-(3,4-dimethyl-phenyl)-piperazin-1-yl]-1-phenyl-butyl ester], 95%.
Still for that read-out and setting: as for `NC(=O)OC(CCN1CCN(c2ccc(OC(F)(F)F)cc2)CC1)c1ccccc1` (stereo not shown) [Example 12, Carbamic acid 1-phenyl-3-[4-(4-trifluoromethoxy-phenyl)-piperazin-1-yl]-propyl ester], the figure is 18%; as for `NC(=O)OC(CCN1CCN(c2ccc(OC3CCCC3)cc2)CC1)c1ccccc1` (stereo not shown) [Example 87, Carbamic acid 3-[4-(4-cyclopentyloxy-phenyl)-piperazin-1-yl]-1-phenyl-propyl ester], 58%.
Take `NC(=O)OC(CCN1CCN(c2ccc(O)cc2)CC1)c1ccc(Cl)c(C(F)(F)F)c1` (stereo not shown) [Example 72, Carbamic acid 1-(4-chloro-3-trifluoromethyl-phenyl)-3-[4-(4-hydroxy-phenyl)-piperazin-1-yl]-propyl ester]: the inhibition in vivo at 10 mg/kg turned out to be 53%.
`COc1ccc(N2CCN(CC3CCc4ccccc4C3OC(N)=O)CC2)cc1` (stereo not shown) [Example 82, Carbamic acid 2-[4-(4-methoxy-phenyl)-piperazin-1-ylmethyl]-1,2,3,4-tetrahydro-naphthalen-1-yl ester]: the inhibition in vivo at 10 mg/kg stood at 55%.
Still for that read-out and setting: to `Cc1ccc(N2CCN(CCC(OC(N)=O)c3ccccc3)CC2)c(C)c1` (stereo not shown) [Example 13, Carbamic acid 3-[4-(2,4-dimethyl-phenyl)-piperazin-1-yl]-1-phenyl-propyl ester] belongs 34%; to `NC(=O)OC(CCN1CCN(c2ccc(OCc3ccccc3)cc2)CC1)c1ccccc1` (stereo not shown) [Example 85, Carbamic acid 3-[4-(4-benzyloxyphenyl)-piperazin-1-yl]-1-phenyl-propyl ester], 58%; to `COc1ccc(N2CCN(CCC(OC(N)=O)c3ccccc3)CC2)c(OC)c1` (stereo not shown) [Example 17, Carbamic acid 3-[4-(2,4-dimethoxy-phenyl)-piperazin-1-yl]-1-phenyl-propyl ester], 19%.
On the same count and under the same terms, to `COc1ccc(N2CCN(CCC(OC(N)=O)c3cccc(C)c3)CC2)cc1` (stereo not shown) [Example 57, Carbamic acid 3-[4-(4-methoxy-phenyl)-piperazin-1-yl]-1-m-tolyl-propyl ester] belongs 52%; to `NC(=O)OC(CCN1CCN(c2ccc(Cl)c(Cl)c2)CC1)c1ccccc1` (stereo not shown) [Example 31, Carbamic acid 3-[4-(3,4-dichloro-phenyl)-piperazin-1-yl]-1-phenyl-propyl ester], 85%.

Still in this experiment, the particulars now being: Mus musculus; po; unit not given (method doses in mg/kg); read-out: AA Writhing: ED50.
For orientation: ED50 means the dose that gives a 50% effect, or the effect in half of the subjects. `NC(=O)OC(c1ccccc1)C(F)CN1CCN(c2ccccc2)CC1` (stereo not shown) [Example 117, Carbamic acid 2-fluoro-1-phenyl-3-(4-phenyl-piperazin-1-yl)-propyl ester]: the ED50 is 32.2 mg/kg.
Regarding `CC(=O)Oc1ccc(N2CCN(CCC(OC(N)=O)c3ccccc3)CC2)cc1` (stereo not shown) [Example 86, Acetic acid 4-[4-(3-carbamoyloxy-3-phenyl-propyl)-piperazin-1-yl]-phenyl ester], the ED50 was 7.52 mg/kg.

The same experiment, now with this note: at 10 po (method: 10 mg/kg oral, 1 hour before acetic acid).
Take `COc1ccc(N2CCN(CCC(OC(N)=O)c3ccccc3F)CC2)cc1` (stereo not shown) [Example 69, Carbamic acid 1-(2-fluoro-phenyl)-3-[4-(4-methoxy-phenyl)-piperazin-1-yl]-propyl ester]: the “AA Writhing: Suppression ratio of Pain response” value is listed as 57%.
